Laboratory results taken from patent US8202879B2, “Quinazoline derivatives having tyrosine kinase inhibitory activity” (Shionogi & Co., Ltd., priority 2005, dated 2012).
Read-outs that look alike come from different tables or passages of the source.

How the values were obtained:
[1] = biological target: T1, EGFR (Homo sapiens, UniProt P00533); assay: Enzyme inhibitory activity on EGFR (time resolution fluorescence, biotinylated poly-Glu-Tyr substrate); type: biochemical; conditions: EGFR purified from insect cell expression system; ATP solution 125 μM; room temperature, 60 minutes
T1 construct: purchased Carna Biosciences, Inc; host or cells: insect cell expression system
T1 sequence (P00533 25-1210): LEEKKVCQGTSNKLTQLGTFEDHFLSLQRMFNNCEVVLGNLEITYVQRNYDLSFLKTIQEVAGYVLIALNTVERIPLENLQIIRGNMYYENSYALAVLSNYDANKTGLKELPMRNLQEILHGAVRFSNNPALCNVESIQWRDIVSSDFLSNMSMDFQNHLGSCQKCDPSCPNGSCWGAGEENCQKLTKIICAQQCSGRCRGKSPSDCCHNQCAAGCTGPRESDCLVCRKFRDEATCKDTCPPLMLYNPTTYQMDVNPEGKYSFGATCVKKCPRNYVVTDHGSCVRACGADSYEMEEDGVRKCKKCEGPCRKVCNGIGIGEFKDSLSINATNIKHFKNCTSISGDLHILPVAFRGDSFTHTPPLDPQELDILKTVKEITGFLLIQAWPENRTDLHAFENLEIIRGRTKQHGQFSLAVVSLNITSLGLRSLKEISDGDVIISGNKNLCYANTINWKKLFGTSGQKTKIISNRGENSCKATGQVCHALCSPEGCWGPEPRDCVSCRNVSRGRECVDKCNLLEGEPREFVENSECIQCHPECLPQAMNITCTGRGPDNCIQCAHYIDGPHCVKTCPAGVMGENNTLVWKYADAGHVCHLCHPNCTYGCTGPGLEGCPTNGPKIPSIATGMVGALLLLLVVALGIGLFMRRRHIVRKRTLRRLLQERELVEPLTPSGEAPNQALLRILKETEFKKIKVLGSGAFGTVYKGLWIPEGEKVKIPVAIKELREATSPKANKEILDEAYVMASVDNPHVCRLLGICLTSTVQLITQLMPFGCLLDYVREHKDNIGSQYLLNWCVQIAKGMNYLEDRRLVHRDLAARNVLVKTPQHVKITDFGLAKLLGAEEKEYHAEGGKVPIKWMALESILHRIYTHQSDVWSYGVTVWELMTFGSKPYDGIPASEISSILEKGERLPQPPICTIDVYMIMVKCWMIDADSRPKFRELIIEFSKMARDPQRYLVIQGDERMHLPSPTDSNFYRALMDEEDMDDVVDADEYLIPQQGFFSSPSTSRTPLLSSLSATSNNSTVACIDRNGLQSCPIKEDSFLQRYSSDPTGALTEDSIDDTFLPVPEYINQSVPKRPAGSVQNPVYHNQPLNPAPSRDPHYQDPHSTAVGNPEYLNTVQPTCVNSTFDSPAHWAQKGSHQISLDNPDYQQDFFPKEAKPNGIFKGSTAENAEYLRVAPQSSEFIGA
Experimental: (§1) Enzyme Inhibitory Activity of Test Compound on EGFR and HER2
(§2) EGFR and HER2 purified from an insect cell expression system, and a biotinylated substrate (synthetic peptide of glutamic acid:tyrosine=4:1) were added to a 384-well plate with ATP added thereto, and an enzyme reaction was performed at room temperature. After completion of the enzyme reaction, an anti-phosphorylated tyrosine antibody labeled with europium and streptavidin labeled with alphycocyanine were added, and a phosphorylated tyrosine residue was quantified by a time resolution fluorescence method.
(§3) A test compound was adjusted to 10 mM using DMSO.
(§4) Further, using 10% DMSO solution, a 1 mM solution was prepared, and this was regarded as a maximum concentration point.
(§5) As a dilution series, a 4-fold dilution series was prepared to a 10 stage.
(§6) As a buffer, TBS containing 10 mM MgCl2, 5 mM MnCl2, 0.2 mM Na3VO4, and 0.1% BSA was used.
(§7) As EGFR and HER2 enzymes, those purified from an insect cell expression system were purchased from Carna Biosciences, Inc.
An EGFR enzyme solution was adjusted to 250 ng/ml using a buffer.
(§8) As a substrate, biotinylated poly-Glu-Tyr (4:1, manufactured by CISbio) was used. A concentration was adjusted to 3.125 μg/ml using the above buffer.
An ATP concentration on study of the EGFR enzyme was adjusted to 125 μM using the buffer.
(§9) For preparing a detection reagent, TBS containing 30 mM EDTA, 0.8M KF and 0.1% BSA was used.
(§10) An anti-phosphorylated tyrosine antibody labeled with europium, PT-66K (CISbio) was adjusted to 195 ng/ml, and streptavidin labeled with alphycocyanine, SA-XL (CISbio) was adjusted to 5 μg/ml.
(§11) As an assay plate, a 384-well plate was used. Per one well, 1.1 μl of a test compound, 4 μl of a substrate solution, and 4 μl of an enzyme solution were added, and 2 μl of an ATP solution was added to initiate an enzyme reaction. The enzyme reaction was performed at room temperature for 60 minutes, and 10 μl of a detection reagent was added to complete the reaction. One hour after completion of the reaction, time resolution fluorescent measurement was performed.

[2] = system: BT-474; assay: In vitro cell proliferation inhibition, WST assay; type: cell-based, human; conditions: BT-474 cells, cultured for 3 days, read-out: BT-474 (nM) proliferation inhibitory activity (IC50 value)
Experimental: Test of In Vitro Cell Proliferation Inhibition of Test Compound
As a human-derived cancer cell strain, BT-474 was used. Cells were all cultured in a 37° C., 5% CO2 incubator in a medium in which 10% bovine fetal serum (ICN) and 50 units ml penicillin/60 μg/ml streptomycin solution (GIBCO) were added to Dulbecco's Modified Essential Medium (DMEM, Nacalai Tesque, Inc).

[3] = biological target: T2, HER2 (Homo sapiens, UniProt P04626); assay: Enzyme inhibitory activity on HER2 (time resolution fluorescence, biotinylated poly-Glu-Tyr substrate); type: biochemical; conditions: HER2 purified from insect cell expression system; ATP solution 290 μM; room temperature, 60 minutes
T2 construct: purchased Carna Biosciences, Inc; host or cells: insect cell expression system
T2 sequence (P04626 23-1255): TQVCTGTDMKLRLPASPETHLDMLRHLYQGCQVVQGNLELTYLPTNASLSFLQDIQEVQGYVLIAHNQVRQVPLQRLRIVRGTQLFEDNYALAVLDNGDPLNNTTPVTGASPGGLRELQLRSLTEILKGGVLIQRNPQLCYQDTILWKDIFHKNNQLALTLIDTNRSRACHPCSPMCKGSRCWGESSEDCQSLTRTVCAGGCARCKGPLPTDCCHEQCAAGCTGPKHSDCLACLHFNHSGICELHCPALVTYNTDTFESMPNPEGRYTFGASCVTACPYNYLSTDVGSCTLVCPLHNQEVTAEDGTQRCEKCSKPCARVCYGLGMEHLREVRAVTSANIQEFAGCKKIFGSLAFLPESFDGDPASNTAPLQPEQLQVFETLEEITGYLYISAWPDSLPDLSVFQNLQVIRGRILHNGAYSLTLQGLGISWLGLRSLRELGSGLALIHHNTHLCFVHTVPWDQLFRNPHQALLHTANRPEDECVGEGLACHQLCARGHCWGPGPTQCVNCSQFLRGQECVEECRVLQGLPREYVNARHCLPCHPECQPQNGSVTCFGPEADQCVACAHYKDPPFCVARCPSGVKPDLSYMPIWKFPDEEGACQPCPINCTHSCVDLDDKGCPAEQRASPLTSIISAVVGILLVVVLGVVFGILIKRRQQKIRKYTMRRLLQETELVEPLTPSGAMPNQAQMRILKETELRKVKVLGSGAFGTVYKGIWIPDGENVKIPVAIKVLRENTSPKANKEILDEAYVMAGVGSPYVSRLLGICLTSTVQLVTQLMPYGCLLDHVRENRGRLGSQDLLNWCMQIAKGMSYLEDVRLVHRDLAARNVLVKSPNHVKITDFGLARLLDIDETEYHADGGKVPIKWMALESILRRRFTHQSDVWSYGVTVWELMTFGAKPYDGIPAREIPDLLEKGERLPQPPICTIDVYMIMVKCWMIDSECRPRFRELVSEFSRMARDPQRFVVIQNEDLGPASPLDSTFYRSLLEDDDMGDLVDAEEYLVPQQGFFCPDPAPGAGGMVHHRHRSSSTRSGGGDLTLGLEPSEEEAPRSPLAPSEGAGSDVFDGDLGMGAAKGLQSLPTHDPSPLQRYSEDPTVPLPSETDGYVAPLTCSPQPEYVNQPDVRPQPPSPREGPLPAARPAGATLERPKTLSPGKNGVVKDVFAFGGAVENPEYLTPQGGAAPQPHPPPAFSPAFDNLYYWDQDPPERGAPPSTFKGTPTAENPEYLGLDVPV
Experimental: as §1, §2, §3, §4, §5, §6, §7
HER2 kinase was adjusted to 1000 ng/ml using a buffer.
as §8
An ATP concentration on study of the HER2 enzyme was adjusted to 290 μM.
as §9, §10, §11

SMILES | IC50 [1] [nM] | IC50 [2] [nM] | IC50 [3] [nM] | IC50 ([2]; Homo sapiens, BT-474, 72 h) [nM]
CC#CC(=NOCCNCC(C)CO)c1ccc2ncnc(Nc3ccc(OCc4cccc(F)c4)c(Cl)c3)c2c1 (stereo not drawn) [VIII-62] | 22 | 12 | 22 | 
CC#C/C(=N\OCCNC[C@H](C)CO)c1ccc2ncnc(Nc3ccc(OCc4cccc(F)c4)c(Cl)c3)c2c1 [VIII-63] | 9.6 |  | 9.2 | 13
CC#C/C(=N\OCCN(CC)CCOC)c1ccc2ncnc(Nc3ccc(OCc4cccc(F)c4)c(Cl)c3)c2c1 [VIII-65] | 97 | 30 | 98 | 
CC#C/C(=N\OCCCNC)c1ccc2ncnc(Nc3ccc(OCc4cccc(F)c4)c(Cl)c3)c2c1 [VIII-67] | 16 | 32 | 14 | 
CC#C/C(=N\OC1CNC1)c1ccc2ncnc(Nc3ccc(OCc4cccc(F)c4)c(Cl)c3)c2c1 [VIII-68] | 19 | 41 | 25 | 
CC#C/C(=N\OCCN1CCC[C@@H]1CO)c1ccc2ncnc(Nc3ccc(OCc4cccc(F)c4)c(Cl)c3)c2c1 [VIII-69] | 43 |  | 28 | 16
CC#CC(=NOCCN1CCC(NC(C)=O)C1)c1ccc2ncnc(Nc3ccc(OCc4cccc(F)c4)c(Cl)c3)c2c1 (stereo not drawn) [VIII-70] | 63 | 7 | 31 | 
CC#C/C(=N\OCCN1CC[C@@H](OC(N)=O)C1)c1ccc2ncnc(Nc3ccc(OCc4cccc(F)c4)c(Cl)c3)c2c1 [VIII-71] | 130 |  | 199 | 17
CC#C/C(=N\OC[C@@H]1CCCN1)c1ccc2ncnc(Nc3ccc(OCc4cccc(F)c4)c(Cl)c3)c2c1 [VIII-72] | 6.3 | 21 | 11 | 
CC#C/C(=N\OC[C@@H]1CCCN1CC#N)c1ccc2ncnc(Nc3ccc(OCc4cccc(F)c4)c(Cl)c3)c2c1 [VIII-73] | 275 | 12 | 199 | 
CC#C/C(=N\OC[C@@H]1CCCN1CCOC)c1ccc2ncnc(Nc3ccc(OCc4cccc(F)c4)c(Cl)c3)c2c1 [VIII-74] | 164 |  | 150 | 28
CC#C/C(=N\OC[C@@H]1CCCN1C)c1ccc2ncnc(Nc3ccc(OCc4cccc(F)c4)c(Cl)c3)c2c1 [VIII-75] | 50 | 22 | 34 | 
CC#C/C(=N\OC[C@H]1NC(=O)O[C@@H]1C)c1ccc2ncnc(Nc3ccc(OCc4cccc(F)c4)c(Cl)c3)c2c1 [VIII-76] | 162 |  | 216 | 12
CC#CC(=NOCC1NC(=O)OC1C)c1ccc2ncnc(Nc3ccc(OCc4cccc(F)c4)c(Cl)c3)c2c1 (stereo not drawn) [VIII-77] | 217 | 11 | 246 | 
CC#CC(=NOCC1CCC(=O)N1)c1ccc2ncnc(Nc3ccc(OCc4cccc(F)c4)c(Cl)c3)c2c1 (stereo not drawn) [VIII-78] | 111 | 35 | 410 | 
CC#CC(=NOC1CNC(CO)C1)c1ccc2ncnc(Nc3ccc(OCc4cccc(F)c4)c(Cl)c3)c2c1 (stereo not drawn) [VIII-80] | 23 | 35 | 29 | 
CC#C/C(=N\OC[C@@H]1C[C@@H](O)CN1)c1ccc2ncnc(Nc3ccc(OCc4cccc(F)c4)c(Cl)c3)c2c1 [VIII-81] | 9.8 |  | 17.7 | 8
CC#C/C(=N\OC[C@@H]1C[C@H](O)CN1)c1ccc2ncnc(Nc3ccc(OCc4cccc(F)c4)c(Cl)c3)c2c1 [VIII-82] | 7.6 | 16 | 7.5 | 
CC#C/C(=N\OC[C@@H]1CCC(=O)N1)c1ccc2ncnc(Nc3ccc(OCc4cccc(F)c4)c(Cl)c3)c2c1 [VIII-83] | 164 | 13 | 121 | 
CC#C/C(=N\OC[C@@H]1C[C@@H](NC(C)=O)CN1)c1ccc2ncnc(Nc3ccc(OCc4cccc(F)c4)c(Cl)c3)c2c1 [VIII-84] | 44 | 28 | 47 | 
CC#C/C(=N\OC[C@H]1CCCN1)c1ccc2ncnc(Nc3ccc(OCc4cccc(F)c4)c(Cl)c3)c2c1 [VIII-85] | 32 | 11 | 33 | 
CC#C/C(=N\OC[C@H]1CCCN1CC#N)c1ccc2ncnc(Nc3ccc(OCc4cccc(F)c4)c(Cl)c3)c2c1 [VIII-86] | 244 |  | 304 | 13

Results, then the compound that gave them:

IC50 [1] [nM] | IC50 [2] [nM] | IC50 [3] [nM] | IC50 ([2]; Homo sapiens, BT-474, 72 h) [nM] | SMILES
642 | 6 | 476 |  | CC#C/C(=N\OC[C@H]1CCCN1CC(=O)OC)c1ccc2ncnc(Nc3ccc(OCc4cccc(F)c4)c(Cl)c3)c2c1 [VIII-87]
47 | 12 | 56 |  | CC#C/C(=N\OC[C@H]1CCCN1CC(=O)O)c1ccc2ncnc(Nc3ccc(OCc4cccc(F)c4)c(Cl)c3)c2c1 [VIII-88]
27 |  | 24 | 25 | CC#C/C(=N\OC[C@@H]1CCCN1CC(=O)O)c1ccc2ncnc(Nc3ccc(OCc4cccc(F)c4)c(Cl)c3)c2c1 [VIII-89]
93 | 9 | 97 |  | CC#C/C(=N\OC[C@H]1CCCN1CCO)c1ccc2ncnc(Nc3ccc(OCc4cccc(F)c4)c(Cl)c3)c2c1 [VIII-90]
74 | 24 | 83 |  | CC#C/C(=N\OC[C@H]1CCCN1C)c1ccc2ncnc(Nc3ccc(OCc4cccc(F)c4)c(Cl)c3)c2c1 [VIII-91]
32 | 29 | 36 |  | CC#C/C(=N\O[C@H]1CN[C@H](CO)C1)c1ccc2ncnc(Nc3ccc(OCc4cccc(F)c4)c(Cl)c3)c2c1 [VIII-92]
453 |  | 321 | 38 | CC#C/C(=N\OCCN1C[C@@H](C)O[C@@H](C)C1)c1ccc2ncnc(Nc3ccc(OCc4cccc(F)c4)c(Cl)c3)c2c1 [VIII-93]
213 |  | 150 | 26 | CC#C/C(=N\OCCN1CCNC(=O)C1)c1ccc2ncnc(Nc3ccc(OCc4cccc(F)c4)c(Cl)c3)c2c1 [VIII-94]
209 | 25 | 176 |  | CC#C/C(=N\OCCN1CCS(=O)(=O)CC1)c1ccc2ncnc(Nc3ccc(OCc4cccc(F)c4)c(Cl)c3)c2c1 [VIII-95]
20 | 30 | 20 |  | CC#C/C(=N\OCCN1CCN(C)CC1)c1ccc2ncnc(Nc3ccc(OCc4cccc(F)c4)c(Cl)c3)c2c1 [VIII-96]
19 | 11 | 22 |  | CC#C/C(=N\OCCN1CCC(O)CC1)c1ccc2ncnc(Nc3ccc(OCc4cccc(F)c4)c(Cl)c3)c2c1 [VIII-97]
21 | 65 | 21 |  | CC#C/C(=N\OCCN1CCC(N)CC1)c1ccc2ncnc(Nc3ccc(OCc4cccc(F)c4)c(Cl)c3)c2c1 [VIII-98]
84 |  | 84 | 24 | CC#C/C(=N\OCCN1CCC(NC(C)=O)CC1)c1ccc2ncnc(Nc3ccc(OCc4cccc(F)c4)c(Cl)c3)c2c1 [VIII-99]
208 |  | 203 | 16 | CC#C/C(=N\OCCN1CCC(NS(C)(=O)=O)CC1)c1ccc2ncnc(Nc3ccc(OCc4cccc(F)c4)c(Cl)c3)c2c1 [VIII-100]
56 | 12 | 129 |  | CC#C/C(=N\OC[C@@H]1COCCN1)c1ccc2ncnc(Nc3ccc(OCc4cccc(F)c4)c(Cl)c3)c2c1 [VIII-101]
72 | 7 | 121 |  | CC#C/C(=N\OC[C@H]1COCCN1)c1ccc2ncnc(Nc3ccc(OCc4cccc(F)c4)c(Cl)c3)c2c1 [VIII-102]
3.9 |  | 5.6 | 11 | CC#CC(=NOCC1CNCCN1)c1ccc2ncnc(Nc3ccc(OCc4cccc(F)c4)c(Cl)c3)c2c1 (stereo not drawn) [VIII-103]
238 | 60 | 202 |  | CC#C/C(=N\OC[C@@H]1COCCN1CC#N)c1ccc2ncnc(Nc3ccc(OCc4cccc(F)c4)c(Cl)c3)c2c1 [VIII-104]
